Data on eight molecules can be found in PubChem BioAssay AID1259407 (Chemical Carcinogenesis Research Information System (CCRIS), 2018).

Active and inactive are the calls of the source. How the calls were made is not given here.

This data set has as its system CCRIS mutagenicity, Ames/micronucleus/aberration tests. In words: CCRIS mutagenicity studies.
Setting [1] is: Test System: AMES SALMONELLA TYPHIMURIUM, Strain/Indicator: TA98, Metabolic Activation: NONE, Method: PREINCUBATION
[2] abbreviates: Test System: AMES SALMONELLA TYPHIMURIUM, Strain/Indicator: TA100, Metabolic Activation: NONE, Method: PREINCUBATION

As for `O=S1(=O)CCCC1`, the mutagenic call was “inactive; negative” under setting [1]; “inactive; negative” (Test System: AMES SALMONELLA TYPHIMURIUM, Strain/Indicator: TA98, Metabolic Activation: RAT, LIVER, S-9, KC 500, Method: PREINCUBATION); “inactive; negative” under setting [2]; “inactive; negative” (Test System: AMES SALMONELLA TYPHIMURIUM, Strain/Indicator: TA100, Metabolic Activation: RAT, LIVER, S-9, KC 500, Method: PREINCUBATION); “inactive; negative” (Test System: AMES SALMONELLA TYPHIMURIUM, Strain/Indicator: TA1535, Metabolic Activation: NONE, Method: PREINCUBATION); “inactive; negative” (Test System: AMES SALMONELLA TYPHIMURIUM, Strain/Indicator: TA1535, Metabolic Activation: RAT, LIVER, S-9, KC 500, Method: PREINCUBATION). Moreover, the mutagenic call (Test System: AMES SALMONELLA TYPHIMURIUM, Strain/Indicator: TA1537, Metabolic Activation: NONE, Method: PREINCUBATION) was “inactive; negative”; the mutagenic call (Test System: AMES SALMONELLA TYPHIMURIUM, Strain/Indicator: TA1537, Metabolic Activation: RAT, LIVER, S-9, KC 500, Method: PREINCUBATION) was “inactive; negative”; the mutagenic call (Test System: AMES SALMONELLA TYPHIMURIUM, Strain/Indicator: TA1538, Metabolic Activation: NONE, Method: PREINCUBATION) is “inactive; negative”; the mutagenic call (Test System: AMES SALMONELLA TYPHIMURIUM, Strain/Indicator: TA1538, Metabolic Activation: RAT, LIVER, S-9, KC 500, Method: PREINCUBATION) was “inactive; negative”; the mutagenic call (Test System: E. COLI, Strain/Indicator: WP2 UVRA, Metabolic Activation: NONE, Method: PREINCUBATION) is “inactive; negative”; the mutagenic call (Test System: E. COLI, Strain/Indicator: WP2 UVRA, Metabolic Activation: RAT, LIVER, S-9, KC 500, Method: PREINCUBATION) was “inactive; negative”.

`CCCN(CCCC(=O)O)N=O`: under “Test System: AMES SALMONELLA TYPHIMURIUM, Strain/Indicator: TA1535, Metabolic Activation: RAT, LIVER, S-9, KC500 OR PHENOBARBITAL, Method: LIQUID SUSPENSION”, the mutagenic call was “active; positive”.

Take `c1cnc2c(c1)ccc1c3cccnc3ccc12`: the mutagenic call was “active; positive” (Test System: AMES SALMONELLA TYPHIMURIUM, Strain/Indicator: TA100, Metabolic Activation: POOLED HUMAN LIVER MICROSOMES, Method: PREINCUBATION); “active; positive” (Test System: AMES SALMONELLA TYPHIMURIUM, Strain/Indicator: TA100, Metabolic Activation: RAT, LIVER, S-9, PHENOBARBITAL AND 5,6-BENZOFLAVONE, Method: PREINCUBATION); “active; positive; g:c to t:a transversions in all organs” (Test System: LACZ TRANSGENIC MOUSE (MUTATM MOUSE), Strain/Indicator: LACZ MUTANT FREQUENCY, Method: LIVER, SPLEEN, LUNG, KIDNEY, BONE MARROW, COLON HARVESTED 7 D AFTER LAST DOSE, DNA ISOLATED).

With `COCC(O)Cn1cc([N+](=O)[O-])nc1Cl` (configuration not stated), the mutagenic call (Test System: AMES SALMONELLA TYPHIMURIUM, Strain/Indicator: TA98, Metabolic Activation: NONE, Method: STANDARD PLATE) was “inactive; negative”; the mutagenic call (Test System: AMES SALMONELLA TYPHIMURIUM, Strain/Indicator: TA98, Metabolic Activation: RAT, LIVER, S-9, Method: STANDARD PLATE) was “active; positive”; the mutagenic call (Test System: AMES SALMONELLA TYPHIMURIUM, Strain/Indicator: TA100, Metabolic Activation: NONE, Method: STANDARD PLATE) was “active; positive”; the mutagenic call (Test System: AMES SALMONELLA TYPHIMURIUM, Strain/Indicator: TA100, Metabolic Activation: RAT, LIVER, S-9, Method: STANDARD PLATE) was “active; positive”.

As for `CC(=O)N(O)c1ccc2ccccc2c1`, the mutagenic call is, setting by setting: under setting [1], “inactive; negative”; (Test System: AMES SALMONELLA TYPHIMURIUM, Strain/Indicator: TA98, Metabolic Activation: RAT, LIVER, CYTOSOL, Method: PREINCUBATION) “inactive; negative”; (Test System: AMES SALMONELLA TYPHIMURIUM, Strain/Indicator: TA98, Metabolic Activation: RAT, LIVER, MICROSOMES, Method: PREINCUBATION) “active; positive”.

On to `Cc1cc(O)c2c(c1)C(=O)c1cc(O)cc(O)c1C2=O`, for which the mutagenic call was “inactive; negative” (Test System: AMES SALMONELLA TYPHIMURIUM, Strain/Indicator: TA97, Metabolic Activation: NONE, Method: STANDARD PLATE); “active; positive” (Test System: AMES SALMONELLA TYPHIMURIUM, Strain/Indicator: TA97, Metabolic Activation: RAT, LIVER, S-9, AROCLOR 1254, Method: STANDARD PLATE); “inactive; negative” (Test System: AMES SALMONELLA TYPHIMURIUM, Strain/Indicator: TA97A, Metabolic Activation: NONE, Method: STANDARD PLATE); “active; positive” (Test System: AMES SALMONELLA TYPHIMURIUM, Strain/Indicator: TA97A, Metabolic Activation: RAT, LIVER, S-9, AROCLOR 1254, Method: STANDARD PLATE); “inactive; negative” (Test System: AMES SALMONELLA TYPHIMURIUM, Strain/Indicator: TA98, Metabolic Activation: HAMSTER, LIVER, S-9, AROCLOR 1254 (30%), Method: PREINCUBATION); “inactive; negative” under setting [1]. Besides, the mutagenic call runs as follows: (Test System: AMES SALMONELLA TYPHIMURIUM, Strain/Indicator: TA98, Metabolic Activation: RAT LIVER S-9, AROCLOR 1254 (30%), Method: PREINCUBATION) “inactive; negative”; (Test System: AMES SALMONELLA TYPHIMURIUM, Strain/Indicator: TA100, Metabolic Activation: HAMSTER LIVER S-9, AROCLOR 1254 (10% OR 30%), Method: PREINCUBATION) “active; positive”; under setting [2], “inactive; negative”; (Test System: AMES SALMONELLA TYPHIMURIUM, Strain/Indicator: TA100, Metabolic Activation: RAT LIVER S-9, AROCLOR 1254 (5% OR 30%), Method: PREINCUBATION) “active; positive”; (Test System: AMES SALMONELLA TYPHIMURIUM, Strain/Indicator: TA102, Metabolic Activation: NONE, Method: STANDARD PLATE) “inactive; negative”; (Test System: AMES SALMONELLA TYPHIMURIUM, Strain/Indicator: TA102, Metabolic Activation: S-9, Method: STANDARD PLATE) “active; positive”. Moreover, the mutagenic call by setting is: (Test System: AMES SALMONELLA TYPHIMURIUM, Strain/Indicator: TA1535, Metabolic Activation: NONE, Method: STANDARD PLATE) “inactive; negative”; (Test System: AMES SALMONELLA TYPHIMURIUM, Strain/Indicator: TA1535, Metabolic Activation: RAT, LIVER, S-9, AROCLOR 1254, Method: STANDARD PLATE) “inactive; negative”; (Test System: AMES SALMONELLA TYPHIMURIUM, Strain/Indicator: TA1537, Metabolic Activation: RAT, LIVER, S-9, AROCLOR 1254, Method: STANDARD PLATE) “active; positive”; (Test System: AMES SALMONELLA TYPHIMURIUM, Strain/Indicator: TA1537, Metabolic Activation: RAT, LIVER, S-9, PCB, Method: STANDARD PLATE) “active; positive”; (Test System: AMES SALMONELLA TYPHIMURIUM, Strain/Indicator: TA1537, Metabolic Activation: RAT, LIVER, S-9, Method: PREINCUBATION) “active; positive”; (Test System: AMES SALMONELLA TYPHIMURIUM, Strain/Indicator: TA1538, Metabolic Activation: NONE, Method: STANDARD PLATE) “inactive; negative”. For the same molecule, the mutagenic call by setting is: (Test System: AMES SALMONELLA TYPHIMURIUM, Strain/Indicator: TA1538, Metabolic Activation: RAT, LIVER, S-9, AROCLOR 1254, Method: STANDARD PLATE) “inactive; negative”; (Test System: AMES SALMONELLA TYPHIMURIUM, Strain/Indicator: TA2638, Metabolic Activation: S-9, Method: STANDARD PLATE) “active; positive”; (Test System: CHINESE HAMSTER V-79, Strain/Indicator: V-79 (HGPRT)/6-THIOGUANINE, Metabolic Activation: NONE, Method: SUSPENSION/PLATE) “inactive; negative”; (Test System: CHINESE HAMSTER V-79, Strain/Indicator: V-79 (HGPRT)/6-THIOGUANINE, Metabolic Activation: RAT, LIVER, S-9, AROCLOR 1254, Method: SUSPENSION/PLATE) “inactive; negative”; (Test System: CHINESE HAMSTER V-79, Strain/Indicator: V-79/8-AZAGUANINE, Metabolic Activation: NONE, Method: STANDARD PLATE) “active; positive”; (Test System: E. COLI, Strain/Indicator: WP2 (PKM101), Metabolic Activation: S-9, Method: STANDARD PLATE) “inactive; negative”. Besides, the mutagenic call is, setting by setting: (Test System: E. COLI, Strain/Indicator: WP2 UVRA (PKM101), Metabolic Activation: S-9, Method: STANDARD PLATE) “inactive; negative”; (Test System: UDS RODENT HEPATOCYTES, Strain/Indicator: THY INCORP (NON-S-PHASE), Metabolic Activation: NONE, Method: AUTORADIOGRAPHY) “active; positive”.

Regarding `O=C(O)[C@H]1OC(Oc2cccc3c2cc2ccc4cccc5ccc3c2c45)[C@H](O)[C@@H](O)[C@@H]1O` (some centres not stated), the mutagenic call reads like this: under setting [1], “inactive; negative”; (Test System: AMES SALMONELLA TYPHIMURIUM, Strain/Indicator: TA98, Metabolic Activation: RAT, LUNG, S-9, Method: PREINCUBATION) “inactive; negative”.

Regarding `COC(=O)C(C)=Cc1ccc([N+](=O)[O-])o1`, the mutagenic call under setting [1] was “active; positive”.
